Reference: patent US7795222B2, “Methods for treating a corneal disorder and promoting skin wound healing” (Santen Pharmaceutical Co., Ltd., priority 2001, dated 2010)
Where no end group is shown, it is not given here.

Tested on: corneal epithelium
Experiment: Action for extending corneal epithelium (in vitro), corneal blocks in tissue culture
Format: cell-based, male Japanese White rabbit
Conditions: for Extension ratio (%): 24 hours culture, control = 100%, mean of six sections; for activity in corneal epithelium extension test: in combination with substance P; for influence on the extension of corneal epithelium: peptide alone
Experimental: (1) Action For Extending Corneal Epithelium (In Vitro)
Using the cornea of a male Japanese White rabbit and according to the method of Nishida et al. (J. Cell Biol., 97, 1653-1657 (1983)), the length of corneal epithelium extension of the corneal section in a tissue culture system was used as a marker to examine the influence on corneal epithelium extension.
Corneal blocks cut off from rabbit corneal section (6 blocks per group) were cultured in culture media (TC-199) containing a test compound under conditions of 5% CO2 at 37° C. for 24 hours. After culturing, the corneal blocks were fixed in a mix solution of ethanol-glacial acetic acid (volume ratio: 95:5) and then embedded in paraffin to prepare sections. After paraffin was removed from the sections, the resulting sections were stained with hematoxylin-eosin to examine the extended length of the corneal epithelial cell layer with a microscope. As a control, the blocks cultured in the same manner in the culture media without any test compound were used.
Herein, the extension ratio in the table is the mean of six sections per group, as calculated when the elongated length of the control group was defined as the basal line (100%).

[1] = test peptide 1 nM + substance P (20 μM)

| Substance | Extension ratio (%) [1] [%] | Extension ratio (%) (test peptide alone, 1 nM) | also measured |
| --- | --- | --- | --- |
| ASSSRRAP (Human) [Ala-Ser-Ser-Ser-Arg-Arg-Ala-Pro] | 134 | – | – |
| Gly-Ser-Ser-Ser-Arg (GSSSR; Human) | 135 | 101 | – |
| GYGSSSRRAPQT (Human) [Gly-Tyr-Gly-Ser-Ser-Ser-Arg-Arg-Ala-Pro-Gln-Thr, the peptide composing the domain C of IGF-I] | 134 | 104 | activity in corneal epithelium extension test: had the activity |
| Substance P: polypeptide consisting of 11 amino acids (RPKPQQFFGLM-NH2; ends and bridges not checked; UniProt P20366 58-68, looked up) [reference compound] | – | – | influence on the extension of corneal epithelium: not observed to have any influence; Extension ratio (%) (test peptide alone, 20 μM): 94% |
| GSSSRRAP (Human) [Gly-Ser-Ser-Ser-Arg-Arg-Ala-Pro] | 140 | 97 | activity in corneal epithelium extension test: the activity still remained |
| GSSSRR | 142 | 94 | – |
| Ser-Ser-Ser-Arg-Arg (SSSRR; Human) | 136 | 98 | – |
| Phe-Gly-Leu-Met-NH2 (FGLM-NH2) [tetrapeptide on the C terminal of substance P, reference compound] | – | – | influence on the extension of corneal epithelium: not observed to have any influence; Extension ratio (%) (test peptide alone, 20 μM): 99% |
| GSSSRAAAP (Human) [Gly-Ser-Ser-Ser-Arg-Ala-Ala-Ala-Pro] | 139 | 100 | – |
| Ser-Ser-Ser-Arg (SSSR; Human) | 138 | 101 | Extension ratio (%) (test peptide 1 nM + FGLM (20 μM)): 145% |
| GSSSRAAP (Human) [Gly-Ser-Ser-Ser-Arg-Ala-Ala-Pro] | 150 | – | – |
